From US20180118721A1, “PYRIMIDINE DERIVATIVES” (Merck Patent GmbH, priority 2015, published 2018)
Where two headings read alike, the source gives them in different places.

What was measured:
[1] = biological target: T1, purified human recombinant MTH1 (human MTH1, residues 42-197) (Homo sapiens, UniProt P36639); assay: MTH1 enzymatic assay (luminescence-based, PPiLight); format: biochemical; details: 6 μM 8-oxo-dGTP, Table 1, grouped
T1 construct: human MTH1, residues 42-197, Uniprot-ID: P36639, expressed in E. coli; made in house; host or cells: E. coli

[2] = biological target: T2, humanMTH1 (aminoacids 42 to 197) (Homo sapiens, UniProt P36639); assay: Binding affinities and kinetics on MTH1 surfaces by surface plasmon resonance (SPR); details: for Kd: SPR, Biacore4000, 25° C., Table 1, grouped, read-out: KD IC50; for residence time: on MTH1, calculated on the basis of the KD values
T2 construct: humanMTH1 (aminoacids 42 to 197); His tag at the N-terminus; purchased Abnova ab99390; host or cells: E. coli
Procedure: The SPR experiments were performed using a Biacore4000 instrument. […] HumanMTH1 was immobilized on Biacore CM5 chips at 25° C. and a flow rate of 10 μL/min using amine coupling at pH 5.5 and in presence of 1 μM MSC2567771B-1 according to Biacore's standard protocol. MTH1 was applied at a concentration of 10 μg/mL and depending on the duration of the injection time immobilization levels between 500 and 2,000 RU were obtained. Sample compounds were applied in form of titration series with a doubling of concentration at each subsequent injection. In general, 10 concentrations were injected covering a dilution range of 500 fold. Before and after each of these titration series the binding capability of the surface was controlled by the injection of the positive control S-Crizotinib at a fixed concentration of 2 μM. Kinetic titration experiments were performed at 25° C. with a flow rate of 30 μL/min, a sample contact time of 90 sec and a dissociation time of 420 sec in running buffer (20 mM Tris-HCl (Tris(hydroxymethyl)-aminomethane HCl) pH 7.40, 150 mM NaCl, 5 mM MgCl2, 1 mM DTT (dithiothreitol), 0.1 mM EGTA (ethylene glycol tetraacetic acid), 0.05% Tween 20) containing 2% DMSO (dimethyl sulfoxide). Buffer injections identical to the sample injections were executed at the beginning of the successive series for the purpose of double referencing. Solvent correction cycles (eight correction points, 1.4%-2.8% DMSO) were run at the same intervals. For surface conditioning ten start-up cycles (buffer injections) were run. Data points were collected at a sample rate of 10 Hz.
Data sets were processed and analyzed using the software Biacore4000 Evaluation, version 1.0. Solvent corrected and double-referenced association and dissociation phase data were fitted to a simple 1:1 interaction model with mass transport limitations.
Measured values are indicated as KD IC50 in the Table below.

| Compound | IC50 [1] | Kd [2] | residence time ([2]; read-out: Residence time) | residence time [2] |
| --- | --- | --- | --- | --- |
| Nc1nc(NC2CC2)cc(N2CCCc3ccccc32)n1 [Example 51, N4-Cyclopropyl-6-(3,4-dihydro-2H-quinolin-1-yl)-pyrimidine-2,4-diamine] | < 1 nM | 1 to 100 nM | – | – |
| C[C@@]1(O)CCN(c2cc(NC3CC3)nc(N)n2)C1 [Example 52, (R)-1-(2-Amino-6-cyclopropylamino-pyrimidin-4-yl)-3-methyl-pyrrolidin-3-ol] | 1 to 100 nM | 1 to 100 nM | – | – |
| C[C@]1(O)CCN(c2cc(NC3CC3)nc(N)n2)C1 [Example 53, (S)-1-(2-Amino-6-cyclopropylamino-pyrimidin-4-yl)-3-methyl-pyrrolidin-3-ol] | 1 to 100 nM | 1 to 100 nM | – | – |
| CC1Cc2ccccc2N1c1cc(NC2CC2)nc(N)n1 (stereo not shown) [Example 58, N4-Cyclopropyl-6-(2-methyl-2,3-dihydro-indol-1-yl)-pyrimidine-2,4-diamine] | 1 to 100 nM | 1 to 100 nM | – | – |
| CNc1cc(N2CC[C@H](O)C2)nc(N)n1 [Example 62, (S)-1-(2-Amino-6-methylamino-pyrimidin-4-yl)-pyrrolidin-3-ol] | 1 to 100 nM | 1 to 100 nM | – | – |
| Nc1nc2c(c(N3CCC(F)(F)C3)n1)CCCN2 [Example 63, 4-(3,3-Difluoro-pyrrolidin-1-yl)-5,6,7,8-tetrahydro-pyrido[2,3-d]pyrimidin-2-ylamine] | < 1 nM | 1 to 100 nM | – | – |
| Nc1nc(NCC2CCCC2)cc(N2CCC(F)(F)C2)n1 [Example 76, N4-Cyclopentylmethyl-6-(3,3-difluoro-pyrrolidin-1-yl)-pyrimidine-2,4-diamine] | 1 to 100 nM | 1 to 100 nM | – | – |
| COc1ccccc1CCNc1cc(N2CCC(F)(F)C2)nc(N)n1 [Example 77, 6-(3,3-Difluoro-pyrrolidin-1-yl)-N4-[2-(2-methoxy-phenyl)-ethyl]-pyrimidine-2,4-diamine] | 1 to 100 nM | 1 to 100 nM | – | – |
| NC(=O)[C@H]1CCN(c2nc(N)nc3c2CCCN3)C1 [Example 78, (S)-1-(2-Amino-5,6,7,8-tetrahydro-pyrido[2,3-d]pyrimidin-4-yl)-pyrrolidine-3-carboxylic acid amide-formiate] | < 1 nM | 1 to 100 nM | – | – |
| CNc1cc(N2CCCCC2c2cc3ccccc3o2)nc(N)n1 (stereo not shown) [Example 81, 6-(2-Benzofuran-2-yl-piperidin-1-yl)-N4-methyl-pyrimidine-2,4-diamine] | < 1 nM | 1 to 100 nM | – | – |
| CNc1cc(N2CCCC2Cc2ccc(Cl)cc2)nc(N)n1 (stereo not shown) [Example 84, 6-[2-(4-Chloro-benzyl)-pyrrolidin-1-yl]-N4-methyl-pyrimidine-2,4-diamine] | < 1 nM | 1 to 100 nM | – | – |
| CNc1cc(N2CCCC2Cc2cccc(Cl)c2)nc(N)n1 (stereo not shown) [Example 85, 6-[2-(3-Chloro-benzyl)-pyrrolidin-1-yl]-N4-methyl-pyrimidine-2,4-diamine] | < 1 nM | < 1 nM | – | – |
| Nc1nc(NC2CC2)cc(N2C[C@H](O)CC2=O)n1 [Example 86, (R)-1-(2-Amino-6-cyclopropylamino-pyrimidin-4-yl)-4-hydroxy-pyrrolidin-2-one] | > 100 nM | > 100 nM | – | – |
| CCCCOC(=O)CC1CCCN1c1cc(NC2CC2)nc(N)n1 (stereo not shown) [Example 87, [1-(2-Amino-6-cyclopropylamino-pyrimidin-4-yl)-pyrrolidin-2-yl]-acetic acid butyl ester] | 1 to 100 nM | 1 to 100 nM | – | – |
| Nc1nc(NC2CC2)cc(N2CCCC2C(=O)NCc2ccccc2Cl)n1 (stereo not shown) [Example 88, 1-(2-Amino-6-cyclopropylamino-pyrimidin-4-yl)-pyrrolidine-2-carboxylic acid 2-chloro-benzylamide] | > 100 nM | > 100 nM | – | – |
| CNc1cc(N2CCC[C@H]2Cc2ccccc2OC)nc(N)n1 [Example 92, 6-[(S)-2-(2-Methoxy-benzyl)-pyrrolidin-1-yl]-N4-methyl-pyrimidine-2,4-diamine] | < 1 nM | – | ≥ 10 min | – |
| Nc1nc(NC2CC2)cc(N2CCCC2=O)n1 [Example 94, 1-(2-Amino-6-cyclopropylamino-pyrimidin-4-yl)-pyrrolidin-2-one] | > 100 nM | > 100 nM | – | – |
| CNc1cc(N2CCCCC2Cc2ccc(OC)cc2)nc(N)n1 (stereo not shown) [Example 95, 6-[2-(4-Methoxy-benzyl)-piperidin-1-yl]-N4-methyl-pyrimidine-2,4-diamine] | < 1 nM | – | ≥ 10 min | – |
| Nc1nc(NC2CC2)cc(N2CCCC2CC(=O)O)n1 (stereo not shown) [Example 97, [1-(2-Amino-6-cyclopropylamino-pyrimidin-4-yl)-pyrrolidin-2-yl]acetic acid] | 1 to 100 nM | > 100 nM | – | – |
| CNc1cc(N2CCCC2Cc2ccccc2Cl)nc(N)n1 (stereo not shown) [Example 98, 6-[2-(2-Chloro-benzyl)-pyrrolidin-1-yl]-N4-methyl-pyrimidine-2,4-diamine] | < 1 nM | 1 to 100 nM | ≥ 10 min | – |
| CNc1cc(N2CCCCC2Cc2ccccc2OC)nc(N)n1 (stereo not shown) [Example 100, 6-[2-(2-Methoxy-benzyl)-piperidin-1-yl]-N4-methyl-pyrimidine-2,4-diamine] | < 1 nM | 1 to 100 nM | ≥ 10 min | – |
| CNc1cc(N2CCCCC2Cc2ccccc2Cl)nc(N)n1 (stereo not shown) [Example 105, 6-[2-(2-Chloro-benzyl)-piperidin-1-yl]-N4-methyl-pyrimidine-2,4-diamine] | < 1 nM | 1 to 100 nM | ≥ 10 min | – |
| CNc1cc(N2CC(C(=O)NCCc3ccc(S(=O)(=O)F)cc3)C2)nc(N)n1 [Example 108, 4-(2-{[1-(2-Amino-6-methylamino-pyrimidin-4-yl)-azetidine-3-carbonyl]-amino}-ethyl)-benzenesulfonyl fluoride] | < 1 nM | – | – | ≥ 10 min |
| CNc1cc(N2CCCC2Cc2cccc(C)c2)nc(N)n1 (stereo not shown) [Example 112, N4-Methyl-6-[2-(3-methyl-benzyl)-pyrrolidin-1-yl]-pyrimidine-2,4-diamine] | < 1 nM | 1 to 100 nM | – | – |
| C=CC(=O)Nc1ccc(CCNC(=O)C2CCN(c3cc(NC)nc(N)n3)CC2)cc1 [Example 113, 1-(2-Amino-6-methylamino-pyrimidin-4-yl)-piperidine-4-carboxylic acid [2-(4-acryloylamino-phenyl)-ethyl]-amide] | 1 to 100 nM | 1 to 100 nM | – | – |
| CNc1cc(N2C(=O)CCC2Cc2ccccc2)nc(N)n1 (stereo not shown) [Example 114, 1-(2-Amino-6-methylamino-pyrimidin-4-yl)-5-benzyl-pyrrolidin-2-one] | 1 to 100 nM | 1 to 100 nM | – | – |
| CNc1cc(N2CC(Cc3ccccc3)CC2=O)nc(N)n1 (stereo not shown) [Example 115, 1-(2-Amino-6-methylamino-pyrimidin-4-yl)-4-benzyl-pyrrolidin-2-one] | 1 to 100 nM | 1 to 100 nM | – | – |
| CNc1cc(N2CCCC[C@@H]2Cc2ccc(OC)cc2)nc(N)n1 [Example 116, 6-[(R)-2-(4-Methoxy-benzyl)-piperidin-1-yl]-N4-methyl-pyrimidine-2,4-diamine] | < 1 nM | – | ≥ 10 min | – |
| CNc1cc(N2CCCC[C@H]2Cc2ccc(OC)cc2)nc(N)n1 [Example 117, 6-[(S)-2-(4-Methoxy-benzyl)-piperidin-1-yl]-N4-methyl-pyrimidine-2,4-diamine] | < 1 nM | < 1 nM | – | – |
